The subject of this test is T1, nicotinic acetylcholine receptors (nAChRs) on dopaminergic axons (likely beta2 subunit-containing).
T1 construct: gene Chrnb2; native receptor on dopaminergic axons; with α4 and/or α6 nAChR subunits (native heteromer, not resolved)
The experiment in a line: whole-cell axonal recording of ACh-puff depolarizations; IC50 from jGCaMP8s nicotinic component in striatal slices. Also on record: species or system Mus musculus.

As to `C=C(C)[C@@H]1[C@H]2OC(=O)[C@@H]1[C@]1(O)C[C@H]3OC34C(=O)O[C@H]2[C@@]41C.CC(C)(O)[C@@H]1[C@H]2OC(=O)[C@@H]1[C@]1(O)C[C@H]3OC34C(=O)O[C@H]2[C@@]41C` (stereo partly shown) [picrotoxin], the half-inhibitory concentration (IC50) (as a rule, the concentration at which inhibition is half-maximal) was 108 µM.
